According to publication PMC11984905, “Chiral Switch of Gadopiclenol: New Standards in MRI Probes” (Advanced Science, 2025):
Several values for one entry are separate records, joined by “and”; a condition that tells them apart may be missing. Identical values can stand only once. Like-named read-outs stand apart in the source and are kept apart here. Marks after values point to notes of the source that are not given here.

Experiments:
[1] = 1H NMRD profiles and 17O NMR relaxometry in water; type: physicochemical; conditions: for q: number of coordinated water molecules
Protocol: The magnetic‐field dependence of the longitudinal relaxation rate of water protons (^1H NMRD) were measured in aqueous solution by using a variable field relaxometer equipped with an HTS‐110 3T Metrology Cryogen‐free Superconducting Magnet (Mede, Italy), operating in the overall range of proton Larmor frequencies of 20–120 MHz (0.47–3.00 T). The measurements were performed using the standard inversion recovery sequence (20 experiments, 3 scans) with a 90° pulse width of 3.5 µs. The temperature was controlled with a Stelar VTC‐91 heater airflow. Additional points in the 0.01–10 MHz frequency range were collected on a Fast‐Field Cycling (FFC) Stelar SmarTracer Relaxometer. T 1 values at 500 MHz were collected on a Bruker Avance III NMR spectrometer operating at 11.7 T. The concentration of Gd^3+ in the solutions was determined by using bulk magnetic susceptibility (BMS) shift measurements performed at 11.7 T. For the measurements in the biological fluid, lyophilized plasma matrix (Siemens Healthcare) was added to 1 mL of [Gd(ent‐L2)] (1.0 mM) or Seronorm (Sero) was solubilized in 5 mL [Gd(ent‐L2)] (1.0 mM) solution. ^1H NMRD of the final solution was measured at 310 K.
The spectra were acquired on a Bruker Avance III spectrometer (11.7 T) using a 5 mm probe under temperature control. An aqueous solution of the complexes ([GdL] = 10–15 mM) was enriched to ca. 2.0% of the ^17O isotope (Cambridge Isotope). The transverse relaxation rates (R 2) were measured as a function of temperature in the 278−350 K range. The simultaneous fit of ^1H NMRD and ^17O NMR profiles data was performed using the Micromath Scientist software (version 2.0, Salt Lake City, UT, USA).

[2] = Kinetic inertness: dissociation of Gd(III)-complexes in 0.01–1.0 M HCl followed by HPLC; type: physicochemical; conditions: for k d at pH = 7.4: dissociation rate calculated at pH 7.4, 25 °C; for k1: proton-assisted dissociation, [H+]≤0.15 M: [Na+]+[H+]=0.15 M
Excerpt: The kinetic inertness of the Gd(III)‐complexes with the different isomers formed by rac‐L1 and rac‐L2 was characterized by the rates of the dissociation reactions taking place in 0.01–1.0 M HCl solution. The dissociation reactions were followed by measuring the integral values of the Gd(III)‐complexes with the different isomers of rac‐L1 and rac‐L2 ligands with HPLC. The conditions of the HPLC experiments for the kinetic studies of the Gd(III)‐complexes with rac‐L1 and rac‐L2 ligands are summarized in Tables S1 and S2 (Supporting Information), respectively. The samples were kept at 25 °C in a well‐closed vessel. For the HPLC analysis, 100 µL samples were withdrawn from the solutions. The measurements were performed with 0.2 mM solution of Gd(III)‐complexes. The pseudo‐first‐order rate constants (k d) were calculated by fitting the HPLC integral – t data pairs to Equation (1). (1) At=Ar−Ave^−kdt+Av where A r, A v, and A t are the integral values of the reactants, the product, and reaction time t. The temperature was maintained at 25 °C and the ionic strength of the solutions was kept constant at [H^+]≤0.15 M, [HCl]+[NaCl] = 0.15 M. The calculation of the kinetic parameters was performed by the fitting of the absorbance – time and relaxation rate – time data pairs with the Micromath Scientist computer program (version 2.0, Salt Lake City, UT, USA).
The dissociation reactions of Gd(III)-complexes with the different isomers formed by rac-L1 and rac-L2 have been studied by HPLC method (Tables S1 and S2) at 25 °C in 0.01 – 1.0 M HCl solution to guarantee the pseudo-first-order kinetic condition. Area values as a function of time for the dissociation reactions of Gd(III)-complexes formed with the different stereoisomers of rac-L1 obtained at 25 °C in 1.0 M HCl solution are shown in Figure S48.
In the presence of HCl excess, the decomplexation of Gd(III)-complexes can be treated as a pseudo-first-order process and the reaction rate can be expressed by Equation (S9), where kd is a pseudo-first-order rate constant, [GdL]t and [GdL]tot are the concentrations of the GdL species at time t and the total concentration of the complex, respectively.
The rates of the dissociation reactions have been studied at different concentrations of HCl ([HCl]=0.01 – 1.0 M, 25 °C). The kd values obtained for the Gd(III)-complexes with the different isomers of rac-L1 and rac-L2 ligands as a function of [H^+] are shown in Figures S49 and S50.
The obtained kd pseudo-first order rate constants are directly proportional to the concentration of H^+. The increase in the kd values with increasing concentration of H^+ can be interpreted in terms of the proton assisted dissociation of Gd(III)-complexes. […] The proton assisted dissociation of Gd(III)-complexes might be explained by the equilibrium formation of a protonated *Gd(HL) intermediate (Equation (S11)), which dissociates spontaneously (Equation (12)).
where k0, and k1 = kGdHL×K^HGdHL are the rate constants characterizing the spontaneous and proton-assisted dissociation of Gd(III)-complexes. The protonation constant (K^HGdHL) of Gd(DOTA)-like complexes are very small (Gd(DOTA): K^HGdHL =14).^[22] By considering very low protonation constant of Gd(III)-complexes with A, C and D isomers of rac-L1 and A’, C’ and D’ isomers of rac-L2 ligands (K^HGdHL<<10), the denominator of Equation (S14) (1>> K^HGdHL [H^+]) can be neglected, so Equation (S14) can be simplified in the form of Equation (S15). The k0 and k1 values of the Gd(III) complexes with A, C and D isomers of rac-L1, and A’, C’ and D’ isomers of rac-L2 ligands have been calculated by fitting of the kinetic data (Figures S49 and S50) to Equation (S15).
The k1 rate and logK^HGdHL protonation constants characterizing the acid-catalyzed decomplexation of Gd(III)-complexes formed with the different stereoisomers of rac-L1 and rac-L2 are presented and compared with those of [Gd(PCTA)], [Gd(DOTA)]^-, [Gd(HP-DO3A)] and [Gd(BT-DO3A)] in Table S19.

[3] = 0.15 M NaCl, 25 °C; cited from earlier work
[4] = 25 °C, cited from earlier work
[5] = Relaxivity at 21 / 400 MHz and 25 °C in 0.15 M NaCl; type: physicochemical; conditions: 400 MHz
Protocol: The relaxivity values were calculated from the longitudinal relaxation time of H2O protons (T 1) measured at 21 MHz on a Stelar relaxometer connected to a Bruker WP80 NMR electromagnet adapted to variable‐field measurements (15−80 MHz proton Larmor frequency). The temperature of the sample holder was controlled with a thermostatted air stream. The longitudinal relaxation time was measured with the “inversion recovery” method (180° – τ – 90°) by using 12 different τ values with typical 90° pulse width of 6.4 µs, 4 scans. The measurements were performed with 1 mM solution of the Gd(III)‐complexes with rac‐L1, ent‐L1, rac‐L2, and ent‐L2 ligands, so the relaxivity values were given as r 1 = […] where T 1p and T 1w were the relaxation time of bulk water protons in the presence and absence of paramagnetic species, respectively. The variable pH relaxivity measurements of Gd(III)‐complexes with rac‐L1, ent‐L1, rac‐L2, and ent‐L2 ligands could be carried out by direct titration of the samples in the pH range 2.5–9.0 (21 MHz, 25 °C, 0.15 M NaCl). The pH was adjusted by stepwise addition of concentrated NaOH or HCl solution.
The stability constant of Gd(III)‐complexes with rac‐L2 and ent‐L2 ligands were determined by the measurement of the proton relaxation rates (r 1) studying the competition reaction of rac‐L2 and ent‐L2 ligands with AAZTA for Gd(III) ion at pH = 4.0 in 0.15 M NaCl solution. In these experiments, the concentration of Gd^3+, rac‐L2, and ent‐L2 ligands was 2.0 mM, while that of the AAZTA was varied between 1.0 and 6.0 mM (5 × 1.5 mL samples). The pH was adjusted to pH 4.0 by stepwise addition of concentrated NaOH or HCl solutions. The samples were kept at 70 °C for a month and then at 25°C for two months in order to attain the equilibrium (the time needed to reach the equilibria was determined by ^1H‐NMR relaxometry). ^1H‐NMR relaxometric measurement of Gd(III) – rac‐L2 – AAZTA and Gd(III) – ent‐L2 – AAZTA systems were performed with a Bruker Avance III 400 (9.4 T) equipped with BB inverse z gradient probe (5 mm). The longitudinal relaxation time (T 1) was measured with the “inversion recovery” method (180° – τ – 90°) by using 12 different τ values with typical 90° pulse width of 12.0 µs, 4 scans at 298 K. The stability constants of [Gd(rac‐L2)] and [Gd(ent‐L2)] complexes were calculated by considering the protonation constants of AAZTA ligand and the stability constant of [Gd(AAZTA)]^− complex (AAZTA: logK 1 ^H = 10.06, logK 2 ^H = 6.50, logK 3 ^H = 3.77, logK 4 ^H = 2.33, logK 5 ^H = 1.51; [Gd(AAZTA)]^−: logK GdL = 18.93, 0.15 M NaCl, 25 °C).^[ [47] ^] The equilibrium constants were calculated with the program PSEQUAD.^[ [48] ^]

[6] = 0.15 M NaCl, 25 °C; cited from earlier work; remark: listed apart in the source

With O=C([O-])CCC(C(=O)[O-])N1CCN(C(CCC(=O)[O-])C(=O)[O-])Cc2cccc(n2)CN(C(CCC(=O)[O-])C(=O)[O-])CC1.[Gd+3] (mixture of isomers) [[Gd(rac‐L1)]^3−] [2,2’,2’’-[3,6,9,15-tetraazabicyclo[9.3.1]pentadeca-1(15),11,13-triene-3,6,9-triyl]tris(4-carboxybutanoate)gadolinium] the “^298K r 1 [1.5 T]” value ([1]; 298 K, 1.5 T, water) was 9.4 mM⁻¹ s⁻¹, the “r 1 ^310K [1.5 T]” value ([1]; 310 K, 1.5 T, water) was 6.8 mM⁻¹ s⁻¹ and the τ R ([1]; Table 2) was 98 ± 2 ps. The τ R ([1]; Table S20, 298 K) was 98±2 ps, the ER ([1]; fixed in the fitting procedure) was 22^b) kJ mol^-1 and the q ([1]; fixed in the fitting procedure) was 2. For the same molecule, the q ([1]; fixed in the fitting procedure, listed as [Gd(rac-L1)]^3-) was 2^b), the “τ M1” value ([1]; residence time of coordinated water 1, 298 K) was 103 ± 5 ns and the “τ M2” value ([1]; residence time of coordinated water 2, 298 K) was 14 ± 2 ns.

For O=C(O)CCC(C(=O)[O-])N1CCN(C(CCC(=O)O)C(=O)[O-])Cc2cccc(n2)CN(C(CCC(=O)O)C(=O)[O-])CC1.[Gd+3] (racemic) [[Gd(rac-L1)] A (RSR/SRS)], the “k d at pH = 7.4” value [2] was 1.84×10^-12 s^−1, the “k d at pH = 7.4” value ([2]; listed as RSR/SRS (A)) was 1.84 × 10^−12 s^−1 and the k1 ([2]; 25 °C) was “(4.6±0.2) ×10^-5 M^-1s^-1”.

For O=C(O)CCC(C(=O)[O-])N1CCN(C(CCC(=O)O)C(=O)[O-])Cc2cccc(n2)CN(C(CCC(=O)O)C(=O)[O-])CC1.[Gd+3] (racemic) [[Gd(rac-L1)] B (RSS/SRR)], the “k d at pH = 7.4” value [2] was 1.28×10^-11 s^−1, the “k d at pH = 7.4” value ([2]; listed as RSS/SRR (B)) was 1.28 × 10^−11 s^−1 and the k1 ([2]; 25 °C) was “(3.2±0.4) ×10^-4 M^-1s^-1”. For the same molecule, the “K^HGd(HL)” value ([2]; protonation constant of the *Gd(HL) intermediate, 25 °C) was 2.0 ± 0.4 M⁻¹.

In the case of O=C(O)CCC(C(=O)[O-])N1CCN(C(CCC(=O)O)C(=O)[O-])Cc2cccc(n2)CN(C(CCC(=O)O)C(=O)[O-])CC1.[Gd+3] (racemic) [[Gd(rac-L1)] D (RRS/SSR)], the “k d at pH = 7.4” value [2] is reported as 4.95×10^-13 s^−1, the “k d at pH = 7.4” value ([2]; listed as RRS/SSR (D)) is reported as 4.95 × 10^−13 s^−1 and the k1 ([2]; 25 °C) is reported as “(1.2±0.1) ×10^-5 M^-1s^-1”.

In the case of O=C(CC[C@H](C(=O)[O-])N1CCN([C@@H](CCC(=O)NCC(O)CO)C(=O)[O-])CCN([C@H](CCC(=O)NCC(O)CO)C(=O)[O-])Cc2cccc(n2)C1)NCC(O)CO.[Gd+3] (relative stereo) [[Gd(rac-L2)] A’ (RSR/SRS)], the “k d at pH = 7.4” value [2] is reported as 1.85×10^-12 s^−1, the “k d at pH = 7.4” value ([2]; listed as RSR/SRS (A′)) is reported as 1.85 × 10^−12 s^−1 and the k1 ([2]; 25 °C) is reported as “(4.7±0.1) ×10^-5 M^-1s^-1”.

For CC1(N(CC(=O)O)CC(=O)O)CN(CC(=O)O)CCN(CC(=O)O)C1 [AAZTA], the “logK1^H” value [3] is given as 10.06, the “logK2^H” value [3] is given as 6.50 and the “logK3^H” value [3] is given as 3.77. The “logK4^H” value [3] was 2.33 and the “logK5^H” value [3] was 1.51.

For O=C([O-])CN1CCN(CC(=O)[O-])Cc2cccc(n2)CN(CC(=O)[O-])CC1.[Eu+3] [[Eu(PCTA)]], the “K^HGd(HL)” value ([4]; 1.0 M KCl) is listed as 1.72 M⁻¹ and the “k d at pH = 7.4” value ([4]; pH 7.4, 1.0 M KCl) is listed as 2.0 × 10^−11 ([Eu(PCTA)]) s^−1 and 2.0×10^-11 s^−1.

For CC1(N(CC(=O)[O-])CC(=O)[O-])CN(CC(=O)[O-])CCN(CC(=O)[O-])C1.[Gd+3] [[Gd(AAZTA)]^−, reference compound], the r1p [5] is given as 6.56 ± 0.08 mM⁻¹ s⁻¹ and the “logK GdL” value [6] is given as 18.93.

In the case of CC(O)CN1CCN(CC(=O)[O-])CCN(CC(=O)[O-])CCN(CC(=O)[O-])CC1.[Gd+3] (centres unmarked) [[Gd(HP-DO3A)]], the k1 ([4]; 0.15 M NaCl) is given as 0.00029 M⁻¹ s⁻¹, the k1 [4] is given as 0.00026 M⁻¹ s⁻¹ and the “k d at pH = 7.4” value ([4]; pH 7.4, 0.1 M NaCl) is given as 1.0×10^-11 s^−1. For the same molecule, the “k d at pH = 7.4” value ([4]; pH 7.4, 0.15 M NaCl) was 1.2×10^-11 s^−1.
